Columns and labels:
[1] = MTS cell viability assay in HEK293; assay type: cell-based; conditions: human, HEK293 cells, HEK293, 30 μM
Protocol: (§1) We investigated the effect of nine cATC derivatives (6b/6d/6e/6f/6i/6j/6k/6l/6n) on cell viability in cancer cell-line HeLa and transformed normal cell-line HEK293. We treated cells with the varying concentrations of the compounds ranging from 10 nM to 50 μM for 18 h (optimized).
(§2) MTS assay (CellTiter 96® AQueous One Solution Cell Proliferation Assay (Promega, USA) was used to determine the cell viability. HeLa and HEK293 cells (20,000 cells in each well) were plated in 96 well plate and treated with 6e, 6j, and 6n varying concentrations of the compounds ranging from 10 nM to 50 μM for 18 h. The assay was carried out according to the manufacturer’s instructions. Finally, the plate was read in Varioskan™ LUX multimode microplate reader (Thermo Fisher Scientific) at 490 nm.
(§3) Cell scavenging activity was calculated using the following formula:
(§4) OD(490nm) (control) – OD(490nm) (Test)/OD(490nm) (control) × 100%
(§5) Cell Viability of the cell was calculated using the following formula: […]

HEK293 cells = test: MTS cell viability assay in HEK293; assay type: cell-based; conditions: HEK293, 30 μM, 18 h
Protocol: as §1, §2, §3, §4, §5

HeLa cells [2] = test: Apoptosis analysis, FITC Annexin V / PI flow cytometry; assay type: cell-based; conditions: IC50 concentration, 18 h
Protocol: The apoptotic effect of 6e, 6j, and 6n compounds on cancer cells was detected using FITC Annexin V Apoptosis Detection Kit I (BD Pharmingen™, NJ, USA) according to the manufacturer’s protocol. 0.5 × 10^6 […] HeLa cells were seeded in a 6-well plate and treated with IC50 concentrations for 18 h. Harvested cells were incubated with Annexin V FITC and PI PE-conjugated antibody and apoptosis was evaluated using FACSCalibur (BD Biosciences, CA, USA) flow cytometry. Data were analyzed using CellQuest Pro software (BD Biosciences).

[3] = tested on: p38-p53 pathway and EMT markers in HeLa cells; test: Western blot of p38-p53 pathway and EMT markers; assay type: cell-based
Protocol: In order to figure out the mechanism of apoptosis induction, we analyzed the effect of different concentrations of 6e (0 μM, 4 μM, 9 μM, 14 μM and 18 μM), 6j (0 μM, 5 μM, 10 μM, 15 μM and 19 μM), and 6n (0 μM, 5 μM, 10 μM, 15 μM and 19 μM) compounds on p38-p53 pathway.
Cell lysates were prepared from HeLa treated with compounds 6e, 6j, and 6n in ice-cold RIPA buffer (Thermo Scientific, USA), and supplemented with protease and phosphatase inhibitor cocktail (Thermo Scientific, USA). Protein quantification of cell lysates was done using BCA reagent (Thermo Scientific). 20 µg of protein samples were separated on a 12% SDS-PAGE and subsequently transferred onto a PVDF membrane (Merck Millipore, USA). The blots were probed with specific antibodies for p38 (1:1000, #9212, Cell Signaling Technology, USA), phospho-p38 (1:1000, #9211; Cell Signaling technology), p53 (1:1000, #9282, Cell signalling technology), phospho-p53 (1:1000, #9284, Cell Signaling technology), snail (1:1000, #C15D3, Cell Signaling technology), slug (1:1000, #C19G7, Cell signalling technology) and GAPDH (1:5000, #ABM22C5, Abgenex, India) followed by incubation with HRP tagged anti-mouse IgG secondary antibody (Abgenex) for GAPDH and HRP tagged anti-rabbit IgG secondary antibody (Abgenex) for p38, phospho-p38, p53, phospho-p53, snail and slug. The chemiluminescence signal was detected in ChemiDoc XRS + (Bio-Rad) using SuperSignal™ West Femto reagent (Thermo Scientific).

ct-DNA duplex = test: Circular dichroism of ct-DNA with cATC derivatives; assay type: binding; conditions: increasing concentration of cATC derivatives
Source text: (§6) Further, we examined the effect of cATC derivatives (6a/6e/6j/6n) on the ct-DNA duplex structure by circular dichroism (CD) studies. We recorded the CD spectra of ct-DNA with the increasing concentration of cATC derivatives (SM, Fig. S24). […] Next, we examined the binding site of cATC derivative (ligand) at the DNA duplex structure by using AutoDock-Vina, a well-reported computational docking program. We performed docking of cATC derivatives (6a/6d/6k) crystal structure (ligand) with dodecamer DNA duplex crystal structure (PDB ID-1BNA) as the receptor. Our docking results strongly support the non-covalent interaction of cATC derivatives (6a/6d/6k) at the DNA-minor groove with the binding affinity ~7.0 Kcal/mole, mostly hydrophobic interactions (SM, Figs. S25–7, Table S8). […] Overall, cATC derivatives non-covalently bind with DNA duplex through the non-intercalative mode without affecting the native duplex structure. Next, we examined the DNA binding affinity of cATC derivatives (6e/6j/6n) by gel-electrophoresis. The different concentrations of human genomic DNA were treated with EtBr (control) and cATC derivatives (6e/6j/6n) and ran on 1% agarose gel (SM, Fig. S28A–D). […] Further, the Microscale thermophoresis (MST) technique was used to calculate the binding affinities of cATC derivatives (6e/6j/6n) (20 µM) with varying concentrations of human genomic DNA (40 fM to 75 pM).

human genomic DNA = test: Agarose gel electrophoresis of human genomic DNA treated with cATC derivatives; assay type: binding; conditions: 1% agarose gel; EtBr control
Source text: as §6

HeLa cells [4] = test: Confocal microscopy localization in HeLa cells; assay type: cell-based; conditions: IC50 concentrations, 12-18 h
Protocol: Herein we have shown that cATC fluorescent derivatives bind with ct-DNA in the non-intercalating mode. Thus we assumed that cATC derivatives might bind to the DNA, localizing within the nucleus and affecting the cell division. We studied the localization of fluorescent signals in HeLa cells using IC50 concentrations of compounds (6e, 6j, and 6n) at different time points using a confocal microscope. For all the compounds initially (at 12 h), the signal was present in the cytoplasm and the nucleus (Fig. 6A–C). With increasing time, the signal became more intense in the nucleus (Fig. 6A–D).
HeLa cells (60,000) were grown onto a coverslip (Coverglass for cell Growth™, Fisherbrand, USA) in a 24-well plate. […] Thereafter, cells were fixed in 4% paraformaldehyde (Himedia), washed with ice-cold 1X PBS, permeabilized with 0.25% Triton X-100 (Sigma), and washed with 0.1% PBST. The cell was counter stained with 49,6-diamidino-2-phenylindole, dihydrochloride (DAPI, Invitrogen) and mounted using one drop of ProLong® Gold antifade reagent (Invitrogen) on a slide. Images were acquired by fluorescence microscope (Leica SP8 TCS) and analyzed using ImageJ (NIH).

In the case of `Cc1cccc(C2C(C(=O)[O-])N(CCc3ccccc3)c3ccccc[c+]3N2Cc2ccccc2)c1` (centres unmarked) [Compound 6e], the viability at 18 h, 30 µM [1] is reported as 38.8%, the Growth inhibition (HEK293 cells) is reported as 61.1% and the “Late Apoptotic cells (FITC-AV+/PI+)” value (HeLa cells [2]; control 2.9 %) is reported as 15.6%. The “Early Apoptotic cells (FITC-AV+/PI-)” value (HeLa cells [2]; control 3.6 %) was 62.5%, the “cells entered into apoptotic phase” value (HeLa cells [2]; control 6.5%) was 78.2% and the E-Cadherin expression ([3]; dose-dependent, 0-19 µM) was “increased expression of E-Cadherin”. The “expression of EMT markers (N-Cadherin, Snail, Slug)” value ([3]; dose-dependent, 0-19 µM) was “decreased expression of EMT markers”, the “phospho-P53 and phospho-P38 levels” value ([3]; increasing concentration 0-18 μM (6e), 0-19 μM (6j, 6n)) was “gradual increase in phospho-P53 and phospho-P38 levels” and the “effect on B-type duplex CD spectrum of ct-DNA” value (ct-DNA duplex) was “almost remained unchanged”. The “visibility of DNA-bound compound on agarose gel under UV light” value (human genomic DNA) was “signal was equivalent to EtBr” and the “cellular localization of fluorescent signal” value (HeLa cells [4]) was “penetrate the cell membrane and localize to the nucleus”.
